What was measured:
[1] = tested on: Hey1; assay: RT-PCR / qRT-PCR of Notch target Hey1 mRNA in neurosphere cultures after DAPT; assay type: cell-based, human; conditions: for decrease of Hey1 mRNA level: 48 hours after treatment, RT-PCR; for Hey1 expression (qRT-PCR): 1 μM DAPT, 48 hours
Description: TMZ concentrations for each culture were selected based on previous experiments (Mihaliak et al., Cancer Letts. 296, 168-177 (2010)) DAPT and LY concentrations were chosen for each culture based on the decrease in Hes1 and Hey1 expression. RNA was isolated from the cultures 48 hours after DAPT treatment, and Hes1 and Hey1 cDNA expression levels were analyzed by PCR or qPCR.
RT-PCR and RT-qPCR were performed as follows. Neurosphere cultures were pelleted and tumor tissues from subcutaneous xenografts were broken into a powder using a BioPulverizer (Biospec Products, Inc., Bartlesville, Okla.). RNA was isolated from neurosphere cultures and frozen tumor samples using TRIzol Reagent (Invitrogen, Carlsbad, Calif.), following the manufacturer's protocol. RNA was treated with DNase I, Amplification Grade (Invitrogen, Carlsbad, Calif.). cDNA was made using the SuperScript II Reverse Transcription (RT) Kit with Oligo(dT)12-18 primers (Invitrogen, Carlsbad, Calif.), followed by a 20 minute incubation at 37° C. with RNaseH. PCR was carried out using Taq DNA Polymerase, following the manufacturer's protocol (Invitrogen, Carlsbad, Calif.). Real time qPCR was carried out using QuantiTect SYBR Green (QIAGEN, Valencia, Calif.). Hes1 and β-Actin primers were developed using Primer3 (Rozen and Skaletsky, Methods Mol Biol 2000; 132: 365-86). Hes1 forward primer: 5″ […] 3″ (SEQ ID NO:1) and reverse primer: 5″ […] 3″ (SEQ ID NO:2). β-Actin (RT-PCR) forward primer: 5″[…] 3″ (SEQ ID NO:3) and reverse primer: 5″ […] 3″ (SEQ ID NO:4). β-Actin (qRT-PCR) forward primer: 5″[…] 3″ (SEQ ID NO:5) and reverse primer: 5″ […] (SEQ ID NO:6). Primers for Hey1 (Osipo et al., Oncogene 2008; 27: 5019-32), Notch1 (Lefort et al., Genes Dev 2007; 21: 562-77), Notch2 (O'Neill et al., Am J Pathol 2007; 171: 1023-36), Notch3 (Buchler et al., Ann Surg 2005; 242: 791-800, discussion −1) and Notch4 (Buchler et al., Ann Surg 2005; 242: 791-800, discussion −1) were previously published, RT-PCR products were analyzed on 2% agarose gels. tantification of band intensity for DAPT treated lines was determined using ImageJ (Rasband W S. ImageJ, U.S. National Institutes of Health, Bethesda, Md., USA. 1997-2004). cDNA levels for qRT-PCR products were calculated using the PFAFFL method (Pfaffl, Nucleic Acids Res 2001; 29: e45).

[2] = tested on: U87NS xenografts; assay: In vivo treatment of pre-existing subcutaneous U87NS xenografts; design: species or system nude mice
Description: We tested the effect of in vivo TMZ+GSI treatments on pre-existing subcutaneous glioma xenografts. […] When the tumor reached approximately 150 mm^3 (volume=([…])(π)(length/2)(width/2)^2), we began the following treatments: 1) DMSO control: two days of 100 μl DMSO/PBS (1:1) intraperitoneal (i.p.) injections; 2) TMZ-only: injections of TMZ (20 mg/kg) in 100 μl DMSO/PBS on days one and two; 3) LY chow-only: two days of 100 μl DMSO/PBS i.p. injections. […] The mice were fed LY chow from day 3 to 12.

[3] = tested on: GS7-2-pMIG; assay: Neurosphere recovery assay, empty vector GS7-2-pMIG; assay type: cell-based, human; conditions: empty vector control
Description: (§1) Neurosphere cultures were dissociated to single cell suspensions by pH dissociation followed by filtration through 40 μm screens. For the neurosphere assay, 3,000 cells/ml of defined medium were seeded in 6-well plates. Immediately after plating, cells were treated with DMSO (Research Organics, Cleveland, Ohio) carrier control, TMZ-only, DAPT-only, or TMZ+DAPT. Additional DAPT was added on days 2 and 4. Neurospheres consisting of 10 or more cells were counted under a light microscope on day 7 for the converted cell lines. Primary lines have a slightly longer doubling time and were counted on day 10. After counting the neurospheres from the initial treatment, 2 ml of fresh defined medium was added to each well. DAPT was also added once more to the DAPT-only and TMZ+DAPT samples, and the cells were incubated for an additional 7 or 10 days. Neurospheres from the recovery period were counted on day 14 or day 20. To analyze secondary neurosphere formation, cells were collected, pelleted and dissociated to a single cell suspension by the pH method. Cells from each well were re-seeded into 6-well plates with 2 ml of defined medium. The number of secondary neurospheres formed by converted cell lines and primary cultures were counted on day 21 or day 30, respectively. All recovery assays were repeated with a minimum of 6 replicate sets of time points. […]

[4] = in vivo; cited from earlier work
[5] = tested on: U87NS-NICD; assay: Neurosphere recovery assay, U87NS-NICD (constitutive Notch1 intracellular domain); assay type: cell-based, human
Description: as §1

[6] = tested on: U87NS-pMIG; assay: Neurosphere recovery assay, empty vector U87NS-pMIG; assay type: cell-based, human; conditions: empty vector control
Description: as §1

| Structure (SMILES) | decrease of Hey1 mRNA level ([1]; U87NS, DAPT 1 μM) | Hey1 expression (qRT-PCR) ([1]; U87NS-NICD) | Hey1 expression (qRT-PCR) ([1]; U87NS-pMIG) | decrease of Hey1 mRNA level ([1]; U373NS, DAPT 5 μM) | mice / xenografts with tumor progression (tumor volume doubled) ([2]; TMZ 20 mg/kg i.p. days 1-2, LY chow day 3 to 12) | average time until tumor volume doubled (progression) ([2]; after treatment, progressing mice only) | mice that succumbed to progression ([2]; in vivo TMZ treatment) | recovery: increase in neurospheres [3] | concentration of TMZ in the cerebral spinal fluid [4] | recovery: increase in neurospheres [5] | recovery: increase in neurospheres [6] |
| --- | --- | --- | --- | --- | --- | --- | --- | --- | --- | --- | --- |
| C[C@H](NC(=O)Cc1cc(F)cc(F)c1)C(=O)N[C@H](C(=O)OC(C)(C)C)c1ccccc1 [DAPT, N-[N-(3,5-difluorophenacetyl)-L-alanyl]-(S)-phenylglycine t-butyl ester] | 76% | minimal decrease | decreased | 51% |  |  |  |  |  |  |  |
| Cn1nnc2c(C(N)=O)ncn2c1=O [TMZ, temozolomide] |  |  |  |  | 8/8 | 23 ± 7 days | 100% | 2.1 fold | about 5 μM | 2.3 fold | 1.9 fold |

Source: patent US8637493B2, “Methods for treating glioblastoma” (University of Massachusetts, priority 2009, dated 2014)
